Test results: US20250263370A1 (Tay Therapeutics Limited, priority 2022, published 2025)
Read-outs that look alike come from different tables or passages of the source.

Legend:
BRD4 BD1 = BRD4 BD1 (Homo sapiens (Human), UniProt O60885); test: NanoBRET bromodomain assay, NanoLuc-BRD4-BD1 fusion in HEK293 cells; type: cell-based; conditions: top concentration 10 μM
[1] = Intrinsic clearance in liver microsomes, mouse; type: in vitro ADME; conditions: pH 7.4, Method 2, read-out: Half-Life (T1/2) (min), Mouse
Experimental: (§1) From stock solution of compound on 10 mM DMSO, a working solution of 0.1 mM is prepared by diluting the compound in DMSO. 6.25 μL of a 20 mg/mL solution of microsomes in PBS pH 7.4 buffer is added to 216.25 μL PBS pH 7.4 buffer (final microsome concentration—0.5 mg/mL). 25 μL of 10 mM solution of NADPH in PBS pH 7.4 buffer is added to the incubations (final NADPH concentration—1 mM). The mixture is pre-warmed to 37° C. for 10 minutes. 2.5 μL of test compound working solution is added (final compound concentration—1 μM with 1% DMSO). Aliquots of 30 μL are taken from the reaction solution at 0.5, 5, 15, 30 and 60 minutes. The reaction was stopped by the addition of 5 volumes of cold acetonitrile with IS (100 nM alprazolam, 200 nM caffeine and 100 nM tolbutamide). Samples were centrifuged at 3, 220 g for 40 minutes. Aliquots of 100 μL of the supernatant are mixed with 100 μL of ultra-pure H2O and used for LC-MS/MS analysis. The percent compound remaining at each time point is calculated with respect to that of the 0.5 min sample. The data are analysed to calculate half-life. Control experiments are run without NADPH and blank samples are prepared using DMSO without the test compound.
(§2) A 50 mM stock solution (in DMSO) is prepared for the compound. From the stock solution, a working solution of 0.5 mM is prepared by diluting the compound in DMSO. This concentration of working solution is prepared considering a final concentration of 1 uM with 0.1% DMSO. The compound (1 μL of working solution) is spiked in PBS with pH 7.4 ([…]) at a concentration of 1 μM. Subsequently, 110 μL of 10 mM NADPH is added (as a co-factor). The sample is incubated at 37° C. for 15 min. Following this, pre-warmed liver microsomes (27.5 μL; final protein conc. 0.5 mg/mL) are added. The samples are then incubated at 37° C. Aliquots of samples are withdrawn at 0, 5, 15, 30, 45 and 60 min. The reaction is stopped by using chilled acetonitrile containing internal standard. The samples are centrifuged, and the supernatants analysed by LC-MS/MS. The percent compound remaining at each time point is calculated with respect to that of the 0 min sample. The data are then analysed to calculate half-life and intrinsic clearance (CLint). Control experiments are run without NADPH and blank samples are prepared using DMSO without the test compound.

BRD4 BD2 = BRD4 BD2 (Homo sapiens (Human), UniProt O60885); test: NanoBRET bromodomain assay, NanoLuc-BRD4-BD2 fusion in HEK293 cells; conditions: for Fold selectivity: IC50 for BRD4 BD1 divided by IC50 for BRD4 BD2, qualitative if an IC50 is at the upper limit; for IC50: BRD4 BD2 (IC50), NanoBRET, HEK293 cells, top concentration 10 μM;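 as to all read-outs here: tracer displacement BRET read in transfected cells after 2 h compound exposure at 37 °C, signal in milliBRET units corrected against no-tracer background wells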
Experimental: HEK293 cells were transfected using NanoLuc-BRD4-BD1 or NanoLuc-BRD4-BD2 fusion vectors and incubated at 37° C. in an atmosphere of 5% CO2 for 20-24 hours. The transfected cells were then dispensed into 96-well plates using 90 μl cell suspension per well containing 2×10^5 cells/mL in Opti-MEM and 1× final concentration of tracer. 90 μL per well of cell suspension without tracer was also dispensed into at least 3 wells as “No tracer control samples” for background correction. Serially diluted test compounds were prepared at 1000× concentration in DMSO and further diluted to 10× concentration in Opti-MEM. […] Plates were then incubated at 37° C. +5% 002 incubator for 2 hours. […] Donor emission (450 nm) and acceptor emission (610 nm) were measured using PHERAstar (BMG LabTech). For data analysis, the raw BRET ratio was generated and converted to milliBRET units with background correction using the formula: [(Acceptorsample/Donorsample−(Acceptorno tracer control/Donorno tracer control)]×1000. The mBU data was plotted as a function of compound concentration and IC50s for BRET assay were determined by nonlinear regression analysis of concentration response curves using the Collaborative Drug Discovery Vault software. The fold-selectivity was calculated by dividing the IC50 for BRD4 BD1 by the IC50 for BRD4 BD2.

[2] = Sprague-Dawley rat pharmacokinetics, IV and PO cassette dosing; type: in vivo
Experimental: Compounds were formulated in 5% DMSO, 40% PEG-400, 55% Milli-Q water at a concentration of 0.2 mg/mL for IV and at 0.5 mg/mL for PO. Two male Sprague-Dawley rats per arm were dosed with up to 5 compounds in cassette mode, which each compound being dosed at 1 mg/kg IV and 5 mg/kg PO. Blood was sampled at various timepoints and plasma isolated. 50 μL of plasma with 5 μL of blank Sprague-Dawley rat plasma were added to 200 μL of acetonitrile containing IS mixture. The samples were vortexed for 30 s. After centrifugation at 4 degrees Celsius, 3900 rpm for 15 min, the supernatant was diluted 3 times with water. 20 μL of diluted supernatant was injected into the LC/MS/MS system for quantitative analysis and concentration of analyte determined by comparison with matrix matched standard curve. WinNonlin (Phoenix™, version 8.3) or other similar software may be used for pharmacokinetic calculations.

[3] = Intrinsic clearance in liver microsomes, rat; type: in vitro ADME; conditions: rat, liver microsomes, pH 7.4, rat liver microsomes, Method 1; read-out: Half-Life (T1/2) (min), Rat
Experimental: as §1, §2

[4] = Plasma stability assay, rat plasma; type: in vitro ADME; conditions: Method 2 (10 μM)
Experimental: From stock solution of compound in 10 mM DMSO, a working solution of 1 mM is prepared by diluting the compound in DMSO. To 398 μL of plasma pre-warmed at 37° C. for 15 minutes), 2 μL of working solution of compound is added, resulting in a final concentration of 5 μM (0.5% DMSO) for the compound. The sample is then incubated at 37° C. Aliquot is withdrawn at specified time-points (0, 15, 30, 60 and 120 mins). The reaction is stopped by addition of 450 μL cold acetonitrile containing internal standard (IS). […] Aliquots of the supernatant is analysed using LC-MS/MS. The percent remaining of the compound at each time point is calculated with respect to the control sample (0 min time-point).
A working solution of compound (500 μM) is prepared in DMSO (100%). To 735 μL of plasma, 15 μL of working solution of compound is added—resulting in a final concentration of 10 μM (2% DMSO) for the compound. The sample is then incubated at 37° C. Aliquot is withdrawn at time-points—0, 15, 30, 60, 90 and 120 mins. The reaction is stopped by using chilled acetonitrile containing internal standard (IS). The samples are centrifuged and the supernatants analyzed using LC-MS/MS. The percent remaining of the compound at each time point is calculated with respect to the control sample (0 min time-point).

CXCL10 = CXCL10 levels by ELISA in IFN-γ stimulated human peripheral blood mononuclear cells; type: cell-based; conditions: human PBMC
Experimental: The impact of Examples 23, 80, and 101 on IL-17A, IL-22, and CXCL10 levels was analyzed in cryopreserved human peripheral blood mononuclear cells (PBMC) by ELISA. […] For IL-17A and IL-22 assays, Examples 23, 80, and 101 were serially diluted from 10 mM in DMSO and further diluted in assay media to 100× the required final concentration, of which, 2 μL was added per well to a round-bottom 96-well tissue culture plate where the final DMSO concentration per well was 0.1%. CD2, CD3, and CD28 antibody-coated beads from the T-cell activation/expansion kit (Miltenyi Biotec) were added to the PBMC at a bead-to-cell ratio of 1:2.
(§3) The mixture of PBMCs and beads were seeded into the wells of the round-bottom 96-well plate at a concentration of 2×10^5 cells/well in a total volume of 200 μL. The cells were cultured for 72 hours at 37° C. and 5% CO2 and then supernatants were collected and IL-17A and IL-22 levels were measured by ELISA. For the CXCL10 assay, Examples 23, 80, and 101 were serially diluted from 10 mM in DMSO and further diluted in assay media to 100× the required final concentration, of which 2 μL was added per well to a 96-well tissue culture plate. The final compound concentration ranged from 30,000 nM to 0.005 nM and the final DMSO concentration per well was 0.3%. PBMCs were seeded at approximately 2×10^5 cells/well in the wells of the 96-well tissue culture plate in a total volume of 190 μL. The plate was incubated for 1 hour at 37° C. and 5% CO2. The cells were then stimulated with IFN-γ (15 ng/mL final concentration) in a volume of 10 μL. The cells were then cultured for 24 hours at 37° C. and 5% CO2. The supernatant was collected and CXCL10 levels were measured by ELISA.

IL-22 = IL-22 levels by ELISA in stimulated human peripheral blood mononuclear cells; type: cell-based; conditions: for IC50: Homo sapiens, PBMC; for IC50 for IL-22 relative to GSK620 / Biomarker selectivity (IL-22 vs. CXCL10): human PBMC; for IC50 for IL-22 relative to GSK620: 72 hours; for Biomarker selectivity (IL-22 vs. CXCL10): from mean IC50
Experimental: (§4) CD2, CD3, and CD28 antibody-coated beads from the T-cell activation/expansion kit (Miltenyi Biotec) were added to the PBMC at a bead-to-cell ratio of 1:2.
as §3, with “For the CXCL10 assay, Examples 23, 80, and 101 were serially diluted from 10 mM in DMSO and further diluted in assay media to 100× the required final concentration, of which 2 μL was added per well to a 96-well tissue culture plate.” left out, “The cells were then stimulated with IFN-γ (15 ng/mL final concentration) in a volume of 10 μL.” left out

IL-17A = IL-17A levels by ELISA in stimulated human peripheral blood mononuclear cells; type: cell-based; conditions: for IC50: Homo sapiens, PBMC; for IC50 for IL-17A relative to GSK620 / Biomarker selectivity (IL-17 vs. CXCL10): human PBMC; for IC50 for IL-17A relative to GSK620: 72 hours; for Biomarker selectivity (IL-17 vs. CXCL10): from mean IC50
Experimental: as §4
as §3, with “For the CXCL10 assay, Examples 23, 80, and 101 were serially diluted from 10 mM in DMSO and further diluted in assay media to 100× the required final concentration, of which 2 μL was added per well to a 96-well tissue culture plate.” left out, “The cells were then stimulated with IFN-γ (15 ng/mL final concentration) in a volume of 10 μL.” left out

[5] = Test Subject 2, read-out: CXCL10 IC50
[6] = Test Subject 3, read-out: CXCL10 IC50
[7] = mean of test subjects, read-out: CXCL10 IC50 Mean
[8] = Test Subject 2, read-out: IL-22 IC50
[9] = Test Subject 3, read-out: IL-22 IC50
[10] = mean of test subjects, read-out: IL-22 IC50 Mean
[11] = Test Subject 1, read-out: IL-17A IC50
[12] = Test Subject 3, read-out: IL-17A IC50
[13] = mean of test subjects, read-out: IL-17A IC50 Mean

CNC(=O)c1[nH]c(C(=O)N[C@@H]2CC[C@@H](O)C2)cc1O[C@@H](C)c1ccccc1 (racemic) [Example 116, N^5-(trans-3-hydroxycyclopentyl)-N^2-methyl-3-((S)-1-phenylethoxy)-1H-pyrrole-2,5-dicarboxamide]
IC50 (BRD4 BD1): ≥ 10 µM | half-life at 1 μM [1]: > 60 min | Fold selectivity (BRD4 BD2): XX (Fold >50 and ≤200)

CNC(=O)c1[nH]c(C(=O)NC2COC2)cc1OC(C)c1ccc(Cl)cc1F (single isomer, unassigned) [Example 39, 3-(1-(4-chloro-2-fluorophenyl)ethoxy)-N^2-methyl-N^5-(oxetan-3-yl)-1H-pyrrole-2,5-dicarboxamide]
PO F ([2]; PO 5 mg/kg, Method 1): 11% | half-life ([2]; male, Sprague-Dawley, rat, plasma, iv, 1 mg/kg, IV 1 mg/kg, Method 1, read-out: IV T1/2 (converted)): 30 min | IC50 (BRD4 BD1): ≥ 10 µM | half-life at 1 μM [3]: > 60 min | IC50 (BRD4 BD2): 50 to 200 nM | Fold selectivity (BRD4 BD2): XX (Fold >50 and ≤200) | Plasma Stability (% remaining at 120 minutes), Rat [4]: 93%

CNC(=O)c1[nH]c(-c2ncc(C)[nH]2)cc1O[C@@H](C)c1ccccc1 [Example 23, (S)-N-methyl-5-(5-methyl-1H-imidazol-2-yl)-3-(1-phenylethoxy)-1H-pyrrole-2-carboxamide]
selectivity to induction of CXCL10 relative to IL-17A and IL-22 (CXCL10): showed selectivity to induction of CXCL10 relative to IL-17A and IL-22 | IC50 (CXCL10; [5]): > 30 µM | IC50 (CXCL10; [6]): > 30 µM | IC50 (CXCL10; [7]): > 30 µM | IC50 (BRD4 BD1): ≥ 10 µM | IC50 (IL-22; Test Subject 1, read-out: IL-22 IC50): 8.5 nM | IC50 (IL-22; [8]): 1.2 nM | IC50 (IL-22; [9]): 4.3 nM | IC50 (IL-22; [10]): 4.7 nM | IC50 for IL-22 relative to GSK620 (IL-22): decreased mean IC50 | Biomarker selectivity (IL-22 vs. CXCL10) (IL-22): >6429 Fold | BRD4 BD2 % Activity Remaining @ 10 uM (BRD4 BD2; 10 uM, (2) = second batch): 22% | IC50 (BRD4 BD2): < 50 nM | Fold selectivity (BRD4 BD2): XXX (Fold >200) | IC50 (IL-17A; [11]): 104 nM | IC50 (IL-17A; Test Subject 2, read-out: IL-17A IC50): 9.6 nM | IC50 (IL-17A; [12]): 53.4 nM | IC50 (IL-17A; [13]): 24.5 nM | IC50 for IL-17A relative to GSK620 (IL-17A): decreased mean IC50 | Biomarker selectivity (IL-17 vs. CXCL10) (IL-17A): >1226 Fold

CNC(=O)c1[nH]c(-c2cnn(C(C)C)c2)cc1O[C@@H](C)c1ccccc1 [Example 80, (S)-5-(1-isopropyl-1H-pyrazol-4-yl)-N-methyl-3-(1-phenylethoxy)-1H-pyrrole-2-carboxamide]
selectivity to induction of CXCL10 relative to IL-17A and IL-22 (CXCL10): showed selectivity to induction of CXCL10 relative to IL-17A and IL-22 | IC50 (CXCL10; Test Subject 1, read-out: CXCL10 IC50): > 30 µM | IC50 (CXCL10; [5]): > 30 µM | IC50 (CXCL10; [6]): > 30 µM | IC50 (CXCL10; [7]): > 30 µM | IC50 (BRD4 BD1): ≥ 10 µM | IC50 (IL-22; [8]): 9.3 nM | IC50 (IL-22; [9]): 30.7 nM | IC50 (IL-22; [10]): 20 nM | IC50 for IL-22 relative to GSK620 (IL-22): decreased mean IC50 | Biomarker selectivity (IL-22 vs. CXCL10) (IL-22): >1500 Fold | IC50 (BRD4 BD2): < 50 nM | Fold selectivity (BRD4 BD2): XXX (Fold >200) | IC50 (IL-17A; [11]): 25.1 nM | IC50 (IL-17A; [12]): 187 nM | IC50 (IL-17A; [13]): 106 nM | IC50 for IL-17A relative to GSK620 (IL-17A): increased mean IC50 | Biomarker selectivity (IL-17 vs. CXCL10) (IL-17A): >283 Fold

CNC(=O)c1[nH]c(C(=O)NC(C)C)cc1O[C@@H](C)c1ccccc1 [Example 105, (S)—N^5-isopropyl-N^2-methyl-3-(1-phenylethoxy)-1H-pyrrole-2,5-dicarboxamide]
IC50 (BRD4 BD1): ≥ 10 µM | half-life at 1 μM [1]: > 60 min | IC50 (BRD4 BD2): 200 to 1000 nM | Fold selectivity (BRD4 BD2): X (Fold >2 and ≤50)
